Measurements taken from US7265130B2, “NPY Y5 antagonist” (Shionogi & Co., Ltd., priority 1999, dated 2007).

Legend:
[1] = target: T1, human NPY Y5 receptor (Homo sapiens, UniProt Q15761); test: cAMP production inhibitory activity in CHO cells; assay type: cell-based; conditions: against 50 nM NPY inhibition of forskolin stimulated cAMP, CHO cells expressing human NPY Y5 receptor
T1 construct: expressed in transfected cells
T1 sequence (Q15761 1-445): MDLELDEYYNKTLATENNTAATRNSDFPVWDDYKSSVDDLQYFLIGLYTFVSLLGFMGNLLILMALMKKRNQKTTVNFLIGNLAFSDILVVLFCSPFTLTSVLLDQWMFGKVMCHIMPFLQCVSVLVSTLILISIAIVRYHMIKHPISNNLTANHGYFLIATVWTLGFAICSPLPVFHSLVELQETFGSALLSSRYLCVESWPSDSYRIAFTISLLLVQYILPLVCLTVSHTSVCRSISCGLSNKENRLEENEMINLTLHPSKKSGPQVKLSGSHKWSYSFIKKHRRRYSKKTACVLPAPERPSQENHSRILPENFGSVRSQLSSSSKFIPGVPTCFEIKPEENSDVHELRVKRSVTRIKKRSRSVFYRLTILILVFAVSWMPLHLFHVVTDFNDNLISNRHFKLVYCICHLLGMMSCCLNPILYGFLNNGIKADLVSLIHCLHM
Experimental: Experiment 2 cAMP production inhibitory activity in CHO cells
After CHO cells expressing human NPY Y5 receptor were incubated in the presence of 2.5 mM isobutylmethylxanthine (SIGMA) at 37° C. for 20 min., the compound of the present invention was added and incubated for 5 min. Then, 50 nM NPY and 10 μM forskolin (SIGMA) were added to the cells and incubated for 30 min. After the reaction was terminated by adding 1N HCl, the amount of cAMP in the supernatant was measured with EIA kit (Amersham LIFE SCIENCE).

[2] = target: T1, human NPY Y5 receptor; test: Affinity for NPY Y5 receptor ([125I] peptide YY binding, CHO cell membranes); conditions: inhibition of specific [125I] peptide YY binding, membranes of CHO cells expressing NPY Y5 receptor
Description: Experiment 1 Affinity for NPY Y5 Receptor
cDNA sequence encoding a human NPY Y5 receptor (WO096/16542) was cloned in the expression vector pME18S (Takebe et al. Mol. Cell. Biol. 8, 8957). The obtained expression vector was transfected into a host CHO cells by using a Lipofect AMINE reagent (Trademark, Gibco BRL Co., Ltd.) according to an instruction protocol to obtain the cells that stably express NPY Y5 receptor.
The membranes prepared from the above CHO cells expressing NPY Y5 receptor, the compound of the present invention and 30,000 cpm [^125I] peptide YY (60 pM of final concentration: Amersham) were incubated in the assay buffer (20 mM HEPES-Hanks buffer containing 0.1% bovine serum albumin, pH 7.4) at 25° C. for 2 hours, and then the mixture was filtered with a glassfilter GF/C treated with polyethyleneimine. After the glassfilter was washed with 50 mM Tris-HCl buffer (pH 7.4), the radioactivity on the filter was measured with a gamma counter. The non-specific binding was detected in the presence of 200 nM of peptide YY. The 50% inhibitory concentration of the test compound against the specific peptide YY binding (IC50 value) was calculated (Inui, A. et al. Endocrinology 131, 2090-2096 (1992)).

| Compound | IC50 [1] | IC50 [2] |
| --- | --- | --- |
| CCCCc1ccc(C(=O)Nc2ccc(NS(=O)(=O)C(C)C)cc2)cc1 [Compound I-2] | 72 nM | 7.5 nM |
| CCCCc1ccc(NC(=O)CCCCNS(=O)(=O)C(C)C)cc1 [Compound I-7] | < 10 nM | 3 nM |
| CCCCc1ccc(NC(=O)CCCCNS(=O)(=O)C(C)(C)C)cc1 [Compound I-11] | 5 nM | 1.3 nM |
| CCCCc1ccc(NC(=O)C2CCC(NS(=O)(=O)C(C)(C)C)CC2)cc1 (stereo not shown) [Compound I-18] | 29 nM | 4.4 nM |
| CCCCc1ccc(C(=O)NCCCCNS(=O)(=O)C(C)(C)C)cc1 [Compound I-20] | 21 nM | 7 nM |
| CCCCc1ccc(NC(=O)C2CCC(NS(=O)(=O)C(C)(C)C)CC2)cc1 (stereo not shown) [Compound I-22] | 51 nM | 8.6 nM |
| CCCCc1ccc(NC(=O)C2CCC(CNS(=O)(=O)C(C)(C)C)CC2)cc1 (stereo not shown) [Compound I-24] | 71 nM | 9.6 nM |
| CCCCc1ccc(NC(=O)C2CCC(NS(=O)(=O)C(C)(C)C)CC2)cc1 (stereo not shown) [Compound I-25] | 2.6 nM | 0.6 nM |
| CCN(CC)c1ccc(NC(=O)C2CCC(NS(=O)(=O)C(C)(C)C)CC2)cc1 (stereo not shown) [Compound I-44] | 13.4 nM | 1 nM |
| CC(C)(C)S(=O)(=O)NC1CCC(C(=O)Nc2ccc(Oc3ccccc3)cc2)CC1 (stereo not shown) [Compound I-50] | 8.4 nM | 0.3 nM |
| CC(C)(C)S(=O)(=O)NC1CCC(C(=O)Nc2ccc(N3CCN(c4ccccc4)CC3)cc2)CC1 (stereo not shown) [Compound I-53] | 21 nM | 4.1 nM |
| CC(C)(C)S(=O)(=O)NC1CCC(C(=O)Nc2ccc(N3CCN(c4ncccn4)CC3)cc2)CC1 (stereo not shown) [Compound I-55] | 40 nM | 9 nM |
| CCOC(=O)C1CCN(c2ccc(NC(=O)C3CCC(NS(=O)(=O)C(C)(C)C)CC3)cc2)CC1 (stereo not shown) [Compound I-57] | 47 nM | 4.8 nM |
| CC(C)(C)S(=O)(=O)NC1CCC(C(=O)Nc2ccc(N3CCc4ccccc4C3)cc2)CC1 (stereo not shown) [Compound I-60] | 18 nM | 0.69 nM |
| CC(C)(C)S(=O)(=O)NC1CCC(C(=O)Nc2ccc(-n3cnc(Cl)c3Cl)cc2)CC1 (stereo not shown) [Compound I-62] | 16 nM | 0.58 nM |
| CC(C)(C)S(=O)(=O)NC1CCC(C(=O)Nc2ccc(-c3ccc(N4CCCCC4)cc3)cc2)CC1 (stereo not shown) [Compound I-65] | 72 nM | 1.8 nM |
| CC(=O)Nc1cccc(NC(=O)C2CCC(NS(=O)(=O)C(C)(C)C)CC2)c1 (stereo not shown) [Compound I-67] | 17 nM | 2 nM |
| CC(C)(C)S(=O)(=O)NC1CCC(C(=O)Nc2ccc(N3CCc4ccccc43)cc2)CC1 (stereo not shown) [Compound I-75] | 3.4 nM | 0.55 nM |
| CC(C)(C)S(=O)(=O)NC1CCC(C(=O)Nc2ccc(-n3ccc4ccccc43)cc2)CC1 (stereo not shown) [Compound I-76] | 5.5 nM | 0.61 nM |
| CC(C)(C)S(=O)(=O)NC1CCC(C(=O)Nc2ccc(-n3cccn3)cc2)CC1 (stereo not shown) [Compound I-77] | 28 nM | 1.8 nM |

| Compound | IC50 [1] | IC50 [2] |
| --- | --- | --- |
| CC(C)(C)S(=O)(=O)NC1CCC(C(=O)Nc2ccc(-c3csnn3)cc2)CC1 (stereo not shown) [Compound I-79] | 25 nM | 0.59 nM |
| CC(C)(C)S(=O)(=O)NC1CCC(C(=O)Nc2ccc(Nc3ccccc3)cc2)CC1 (stereo not shown) [Compound I-83] | 29 nM | 0.61 nM |
| CC(C)(C)S(=O)(=O)NC1CCC(C(=O)Nc2ccc(-n3ncnn3)cc2)CC1 (stereo not shown) [Compound I-84] | 25 nM | 1.3 nM |
| CC(C)(C)S(=O)(=O)NC1CCC(C(=O)Nc2ccc(N(CCO)CCO)cc2)CC1 (stereo not shown) [Compound I-86] | 100 nM | 3.4 nM |
| COC(=O)CCCc1ccc(NC(=O)C2CCC(NS(=O)(=O)C(C)(C)C)CC2)cc1 (stereo not shown) [Compound I-87] | 21 nM | 0.66 nM |
| CC(C)(C)S(=O)(=O)NC1CCC(C(=O)Nc2ccc(N3CCC(O)C3)cc2)CC1 (stereo not shown) [Compound I-90] | 50 nM | 2.8 nM |
| CCCCc1ccc(NC(=O)c2ccc(N[S+]([O-])C(C)(C)Cl)cc2)cc1 (stereo not shown) [Compound I-92] | 61 nM | 7 nM |
| CCCCc1ccc(NC(=O)c2ccc(N[S+]([O-])C(C)(C)C)cc2)cc1 (stereo not shown) [Compound I-101] | 38 nM | 3.9 nM |
| CCCCc1ccc(NC(=O)c2ccc(NS(=O)(=O)C(C)(C)C)cc2)cc1 [Compound I-102] | 14 nM | 1.7 nM |
| CCCCc1ccc(NC(=O)c2ccc(NS(=O)(=O)C(C)(C)Cl)cc2)cc1 [Compound I-106] | 29 nM | 6.4 nM |
| CCCCc1ccc(NC(=O)CCCCNS(=O)(=O)C(C)(C)CC)cc1 [Compound I-109] | 3.2 nM | 1.2 nM |
| CCCCc1ccc(NC(=O)CCCCNS(=O)(=O)CC(C)C)cc1 [Compound I-110] | 13.6 nM | 4.3 nM |
| CCCCc1ccc(NC(=O)CCCCNS(=O)(=O)C(C)CC)cc1 (stereo not shown) [Compound I-111] | 6.1 nM | 1.8 nM |
| CCCCc1ccc(NC(=S)CCCCNS(=O)(=O)CC(C)C)cc1 [Compound I-114] | 30 nM | 7 nM |
| CCCCOc1ccc(NC(=O)CCCCNS(=O)(=O)C(C)CC)cc1 (stereo not shown) [Compound I-116] | 11 nM | 1.2 nM |
| CC(C)(C)S(=O)(=O)NC1CCC(C(=O)Nc2ccc(-c3ccc(-c4ccccc4)cc3)cc2)CC1 (stereo not shown) [Compound I-136] | – | 2.8 nM |
| COc1ccc(Cl)cc1NC(=O)C1CCC(NS(=O)(=O)C(C)(C)C)CC1 (stereo not shown) [Ia-35] | – | 1.8 nM |
| CC(C)S(=O)(=O)N[C@H]1CC[C@H](C(=O)Nc2ccc3oc(=O)ccc3c2)CC1 [Ia-76] | – | 2.2 nM |
| CC(C)(C)S(=O)(=O)N[C@H]1CC[C@H](C(=O)Nc2ccc3c(c2)C(=O)N(c2ccccc2)C3=O)CC1 [Ia-79] | – | 0.82 nM |
| CC(C)S(=O)(=O)NC1CCC(C(=O)Nc2ccc(-c3ncco3)cc2)CC1 (stereo not shown) [Ia-184] | – | 0.38 nM |

| Compound | IC50 [1] | IC50 [2] |
| --- | --- | --- |
| CC(C)(C)S(=O)(=O)NC1CCC(C(=O)Nc2cccc(-c3ccco3)c2)CC1 (stereo not shown) [Ia-209] | – | 0.55 nM |
| Cc1cc(=O)oc2cc(NC(=O)[C@H]3CC[C@H](NS(=O)(=O)C(C)C)CC3)ccc12 [Ia-227] | – | 0.59 nM |
| Cc1cc(=O)oc2cc(NC(=O)CCCCNS(=O)(=O)C(C)(C)C)ccc12 [Ia-228] | – | 0.96 nM |
| Cc1cc(=O)oc2cc(NC(=O)CCCCNS(=O)(=O)C(C)C)ccc12 [Ia-229] | – | 1.9 nM |
| CC(C)CN1C(=O)c2ccc(NC(=O)[C@H]3CC[C@H](NS(=O)(=O)C(C)(C)C)CC3)cc2C1=O [Ia-230] | – | 0.32 nM |
| CC(C)CN1C(=O)c2ccc(NC(=O)[C@H]3CC[C@H](NS(=O)(=O)C(C)C)CC3)cc2C1=O [Ia-231] | – | 0.29 nM |
| CC(C)CN1C(=O)c2ccc(NC(=O)CCCCNS(=O)(=O)C(C)(C)C)cc2C1=O [Ia-232] | – | 0.7 nM |
| CC(C)CN1C(=O)c2ccc(NC(=O)CCCCNS(=O)(=O)C(C)C)cc2C1=O [Ia-233] | – | 0.63 nM |
| CC(C)(C)S(=O)(=O)NC1CCC(C(=O)Nc2nc3ccccc3s2)CC1 (stereo not shown) [Ia-235] | – | 5.5 nM |
| CC(C)(C)S(=O)(=O)NC1CCN(C(=O)Nc2ccc(C(F)(F)F)cn2)CC1 [Ia-241] | – | 1.9 nM |
| Cc1cc(C(=O)NC(C)C)ccc1NC(=O)N1CCC(NS(=O)(=O)C(C)(C)C)CC1 [Ia-243] | – | 1.3 nM |
| CC(C)(C)S(=O)(=O)NC1CCC(C(=O)Nc2ccc3occc3c2)CC1 (stereo not shown) [Ia-250] | – | 1.9 nM |
| CC(C)S(=O)(=O)NC1CCC(C(=O)Nc2ccc(OC(C)(C)C)cc2)CC1 (stereo not shown) [Ia-252] | – | 1.2 nM |
| CC(C)(C)Oc1ccc(NC(=O)CCCCNS(=O)(=O)C(C)(C)C)cc1 [Ia-253] | – | 0.53 nM |
| CC(C)(C)Oc1ccc(NC(=O)N2CCC(NS(=O)(=O)C(C)(C)C)CC2)cc1 [Ia-254] | – | 2 nM |
| CC(C)(C)S(=O)(=O)NCCCCC(=O)Nc1ccc(N2CCCS2(=O)=O)cc1 [Ia-255] | – | 3.2 nM |
| CC(C)(C)S(=O)(=O)NC1CCN(C(=O)Nc2ccc(N3CCCS3(=O)=O)cc2)CC1 [Ia-256] | – | 5.7 nM |
| CC(C)(C)S(=O)(=O)NCCCCC(=O)Nc1ccc(OC2CCOCC2)cc1 [Ia-257] | – | 8.6 nM |
| CC(C)S(=O)(=O)NC1CCC(C(=O)Nc2ccc(OC3CCOCC3)cc2)CC1 (stereo not shown) [Ia-258] | – | 1.8 nM |
